From ChEMBL document CHEMBL6103579, “Antiproliferative activity of selenium-enriched coumarin derivatives on the SK-N-SH neuroblastoma cell line: Mechanistic insights” (Eur J Med Chem, 2025)

Legend:
N2a [1] = assay: Antitumor activity against mouse N2a cells implanted in female ICR mouse model assessed as tumor inhibition rate at 20 mg/kg, ip measured upto 8 days relative to control; type: functional; parameters: scale not given: the % may be the effect or the level left; settings: time <= 8 day
N2a [2] = assay: Antitumor activity against mouse N2a cells implanted in female ICR mouse model assessed as reduction in tumor weight at 20 mg/kg, ip measured upto 8 days (reference value: 0.9 +/-0.26 g); type: functional; settings: time <= 8 day
[3] = Toxicity in female ICR mouse assessed as change in organ coefficient of kidney at 20 mg/kg, ip […] (reference value: 0.007); type: organism-based; settings: in vivo
[4] = Toxicity in female ICR mouse assessed as change in organ coefficient of liver at 20 mg/kg, ip […] (reference value: 0.058+/-0.010); type: organism-based; settings: in vivo
[5] = Toxicity in female ICR mouse assessed as change in organ coefficient of lung at 20 mg/kg, ip […] (reference value: 0.007+/-0.001); type: organism-based; settings: in vivo
[6] = Toxicity in female ICR mouse assessed as change in organ coefficient of spleen at 20 mg/kg, ip […] (reference value: 0.006+/-0.002); type: organism-based; settings: in vivo
[7] = Toxicity in female ICR mouse assessed as change in organ coefficient of heart at 20 mg/kg, ip […] (reference value: 0.006+/-0.002); type: organism-based; settings: in vivo
N2a [8] = assay: Antitumor activity against mouse N2a cells implanted in female ICR mouse model assessed as change in body weight at 20 mg/kg, ip measured upto 8 days (reference value: 25.54 +/-2.19 g); type: functional; settings: time <= 8 day

Compound `O=P1(N(CCCl)CCCl)NCCCO1` (stereo not drawn) [CYCLOPHOSPHAMIDE ANHYDROUS] has an Activity (N2a [1]) of 64.6%, an Activity (N2a [2]) of 0.32 g and an Activity [3] of 0.007. For the same compound, the Activity [4] was 0.059, the Activity [5] was 0.007 and the Activity [6] was 0.004. The Activity [7] was 0.006 and the Activity (N2a [8]) was 27.2 g.
